In brackets after ≈: the same amount, converted by molar mass.
Tests used:
[1] = target: T1, Glucose-dependent insulinotropic receptor (Homo sapiens, UniProt Q8TDV5); assay: Agonist activity at human GPR119 expressed in CHO cells co-expressing Galpha15 assessed as increase of intracellular cAMP accumulation after 60 mins by HTRF assay; format: functional, cell-based
T1 sequence (Q8TDV5 whole entry): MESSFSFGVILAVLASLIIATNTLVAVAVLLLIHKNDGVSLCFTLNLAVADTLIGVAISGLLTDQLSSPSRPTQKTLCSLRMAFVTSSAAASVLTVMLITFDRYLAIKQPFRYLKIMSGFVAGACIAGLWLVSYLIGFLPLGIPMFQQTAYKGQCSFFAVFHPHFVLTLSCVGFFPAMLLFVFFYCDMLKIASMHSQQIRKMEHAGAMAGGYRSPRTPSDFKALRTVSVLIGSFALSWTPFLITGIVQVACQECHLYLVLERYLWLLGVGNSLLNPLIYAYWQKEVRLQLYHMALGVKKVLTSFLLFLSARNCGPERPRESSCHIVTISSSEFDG

[2] = target: T2, Glucose-dependent insulinotropic receptor (Mus musculus, UniProt Q7TQP3); assay: Agonist activity at mouse GPR119 expressed in CHO cells co-expressing Galpha15 assessed as increase of intracellular cAMP accumulation after 60 mins by HTRF assay; format: functional, cell-based
T2 sequence (Q7TQP3 whole entry): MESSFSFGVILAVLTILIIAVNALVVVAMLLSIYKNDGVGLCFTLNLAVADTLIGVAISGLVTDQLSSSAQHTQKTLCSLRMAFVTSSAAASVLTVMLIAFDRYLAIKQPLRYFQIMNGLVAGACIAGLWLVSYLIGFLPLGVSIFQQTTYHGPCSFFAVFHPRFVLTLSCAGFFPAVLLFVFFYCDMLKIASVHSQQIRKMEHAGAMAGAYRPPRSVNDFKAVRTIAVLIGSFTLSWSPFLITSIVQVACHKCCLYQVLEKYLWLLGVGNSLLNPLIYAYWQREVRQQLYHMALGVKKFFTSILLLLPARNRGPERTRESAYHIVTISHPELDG

[3] = Solubility of compound in PEG400 after 3 to 7 days; format: physicochemical
[4] = tested on: Mus musculus; assay: Antidiabetic activity in high fat fed po dosed C57BL/6 mouse assessed as change in AUC of blood glucose level administered 1 hr before glucose challenge measured up to 120 mins by oral glucose tolerance test; format: functional; details: C57BL6, Blood, read-out: MED
[5] = species on record: Canis familiaris; assay: Cardiotoxicity in dog assessed as QTc prolongation; format: toxicity, organism-based, Canis lupus familiaris; details: in vivo
[6] = target: T3, Voltage-gated inwardly rectifying potassium channel KCNH2 (Homo sapiens, UniProt Q12809); assay: Inhibition of human ERG by patch clamp technique
[7] = target: T4, Glucose-dependent insulinotropic receptor (Mus musculus) (UniProt Q7TQP3); assay: Agonist activity at mouse GPR119 expressed in CHO cells co-expressing Galpha15 assessed as increase of intracellular cAMP accumulation at 10 uM after 60 mins by HTRF assay; format: functional, cell-based
T4 sequence (whole entry): T2 sequence (Q7TQP3 whole entry)

[8] = tested on: Mus musculus; assay: Antidiabetic activity in high fat fed C57BL/6 mouse assessed as change in AUC of blood glucose level at 30 mg/kg, po qd administered 1 hr before glucose challenge measured up to 120 mins by oral glucose tolerance test relative to control; format: functional, C57BL6
[9] = target: T5, Glucose-dependent insulinotropic receptor (Homo sapiens) (UniProt Q8TDV5); assay: Agonist activity at human GPR119 expressed in CHO cells co-expressing Galpha15 assessed as increase of intracellular cAMP accumulation at 10 uM after 60 mins by HTRF assay; format: functional, cell-based
T5 sequence (whole entry): T1 sequence (Q8TDV5 whole entry)

[10] = target: T3, Voltage-gated inwardly rectifying potassium channel KCNH2; assay: Inhibition of human ERG
[11] = tested on: Mus musculus; assay: Antidiabetic activity in high fat fed C57BL/6 mouse assessed as change in AUC of blood glucose level at 1 mg/kg, po qd administered 1 hr before glucose challenge measured up to 120 mins by oral glucose tolerance test relative to control; format: functional, C57BL6
[12] = tested on: Mus musculus; assay: Antidiabetic activity in high fat fed C57BL/6 mouse assessed as change in AUC of blood glucose level at 3 mg/kg, po qd administered 1 hr before glucose challenge measured up to 120 mins by oral glucose tolerance test relative to control; format: functional, C57BL6
[13] = tested on: Mus musculus; assay: Antidiabetic activity in high fat fed C57BL/6 mouse assessed as change in AUC of blood glucose level at 10 mg/kg, po qd administered 1 hr before glucose challenge measured up to 120 mins by oral glucose tolerance test relative to control; format: functional, C57BL6
[14] = Volume of distribution at steady state in mouse at 1 mg/kg, iv and 10 mg/kg, po; format: ADME, organism-based; details: in vivo, read-out: Vdss
[15] = Half life in mouse at 1 mg/kg, iv and 10 mg/kg, po; format: ADME, organism-based; details: in vivo
[16] = tested on: Mus musculus; assay: Dose normalized AUC in mouse at 1 mg/kg, iv and 10 mg/kg, po; format: ADME, organism-based; details: in vivo
[17] = Clearance in mouse at 1 mg/kg, iv and 10 mg/kg, po; format: ADME, organism-based; details: in vivo

T3 sequence (Q12809 whole entry): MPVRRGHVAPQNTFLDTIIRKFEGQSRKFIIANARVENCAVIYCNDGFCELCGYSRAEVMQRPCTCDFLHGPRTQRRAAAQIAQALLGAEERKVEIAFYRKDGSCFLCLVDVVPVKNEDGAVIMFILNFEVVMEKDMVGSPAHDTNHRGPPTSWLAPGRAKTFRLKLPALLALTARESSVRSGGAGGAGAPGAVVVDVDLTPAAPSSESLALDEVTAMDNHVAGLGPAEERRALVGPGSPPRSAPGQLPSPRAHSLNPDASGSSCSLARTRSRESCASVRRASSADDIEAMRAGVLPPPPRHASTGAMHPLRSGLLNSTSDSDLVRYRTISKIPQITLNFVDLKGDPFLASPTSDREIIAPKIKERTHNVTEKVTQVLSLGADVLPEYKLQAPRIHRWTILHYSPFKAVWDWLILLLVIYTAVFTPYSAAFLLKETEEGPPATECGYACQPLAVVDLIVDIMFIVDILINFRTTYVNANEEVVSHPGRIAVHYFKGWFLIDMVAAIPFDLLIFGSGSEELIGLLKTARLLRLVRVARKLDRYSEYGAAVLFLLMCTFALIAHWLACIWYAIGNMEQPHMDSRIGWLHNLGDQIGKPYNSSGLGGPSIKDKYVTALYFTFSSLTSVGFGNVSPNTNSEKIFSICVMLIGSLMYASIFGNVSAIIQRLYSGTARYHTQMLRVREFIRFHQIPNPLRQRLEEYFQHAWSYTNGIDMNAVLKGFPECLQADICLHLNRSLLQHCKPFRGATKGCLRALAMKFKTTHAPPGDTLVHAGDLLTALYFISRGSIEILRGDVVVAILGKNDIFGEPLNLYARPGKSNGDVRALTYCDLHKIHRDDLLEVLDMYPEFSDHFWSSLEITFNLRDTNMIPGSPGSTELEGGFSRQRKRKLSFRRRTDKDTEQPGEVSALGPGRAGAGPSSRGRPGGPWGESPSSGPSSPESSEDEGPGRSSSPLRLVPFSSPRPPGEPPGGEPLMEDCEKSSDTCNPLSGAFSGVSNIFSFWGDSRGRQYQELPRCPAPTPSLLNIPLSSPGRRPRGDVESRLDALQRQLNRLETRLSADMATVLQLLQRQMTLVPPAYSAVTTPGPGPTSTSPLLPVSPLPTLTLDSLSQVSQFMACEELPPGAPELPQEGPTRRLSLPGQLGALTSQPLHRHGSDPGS

Structure (SMILES) | EC50 [1] [nM] | EC50 [2] [nM] | other results
Cc1ccc(N2CCC(C3CCN(C(=O)OC(C)(C)C)CC3)CC2)cc1 | 338 | 1900 | –
CC(C)(C)OC(=O)N1CCC(C2CCN(c3ccccc3)CC2)CC1 | 1400 | – | Activity [7]: < 10%
Cc1ccccc1N1CCC(C2CCN(C(=O)OC(C)(C)C)CC2)CC1 | – | – | Activity [9]: < 10%; Activity [7]: < 10%
Cc1ccnc(N2CCC(C3CCN(c4ccc(S(C)(=O)=O)cc4)CC3)CC2)n1 | – | – | Activity [9]: < 10%; Activity [7]: < 10%
CC(C)(C)OC(=O)N1CCC(C2CCN(c3ncccn3)CC2)CC1 | 526 | 523 | –
CS(=O)(=O)c1ccc(N2CCC(C3CCN(c4cnccn4)CC3)CC2)cc1 | 201 | 239 | –
CS(=O)(=O)c1ccc(N2CCC(C3CCN(c4ccccn4)CC3)CC2)cc1 | 39 | 682 | –
CC(C)(C)OC(=O)N1CCC(C2CCN(c3cccnc3)CC2)CC1 | 3600 | – | Activity [7]: < 10%
CC(C)(C)OC(=O)N1CCC(C2CCN(c3cnccn3)CC2)CC1 | 103 | 142 | –
Cc1cccc(N2CCC(C3CCN(C(=O)OC(C)(C)C)CC3)CC2)c1 | 514 | – | Activity [7]: < 10%
O=C(NC1CC1)c1ccc(OCC2CC2C2CCN(c3ncc(Cl)cn3)CC2)cc1F (racemic; 51) | 38 | 9 | –
Cc1cnc(N2CCC(C3CCN(c4cc(C)nc(C#N)n4)CC3)CC2)cn1 | 19 | 64 | Activity [8]: 35%; Activity [11]: 7%; Activity [12]: 26%; Activity [13]: 30%
CS(=O)(=O)c1ccc(N2CCC(C3CCN(c4ccc(Cl)cn4)CC3)CC2)cc1 | 48 | 131 | Vd [14]: 2.3 L/kg; half-life [15]: 13.5 h; AUC [16]: 19.3 µM·kg·h/mg; clearance [17]: 2 mL/min/kg
CC(=O)c1ccc(N2CCC(C3CCN(C(=O)OC(C)(C)C)CC3)CC2)cc1 | 25 | 341 | –
CC(C)(C)OC(=O)N1CCC(C2CCN(c3ccc(C(N)=O)cc3)CC2)CC1 | 76 | 165 | –
CC(C)(C)OC(=O)N1CCC(C2CCN(c3ccccn3)CC2)CC1 | 831 | 2500 | –
O=C(NC1CC1)c1ccc(OCC2CC2C2CCN(c3ncc(Cl)cn3)CC2)cc1F (racemic; 52) | 20 | 23 | –
CC(C)(C)OC(=O)N1CCC(C2CCN(c3ccc(S(C)(=O)=O)cc3)CC2)CC1 | 22 | 36 | Vd [14]: 6.9 L/kg; half-life [15]: 0.6 h; AUC [16]: 0.09 µM·kg·h/mg; clearance [17]: 120 mL/min/kg
CSc1ccc(N2CCC(C3CCN(C(=O)OC(C)(C)C)CC3)CC2)cc1 | 600 | 513 | –
CC(C)(C)OC(=O)N1CCC(C2CCN(c3ccncn3)CC2)CC1 | 116 | 379 | –
Cc1cnc(N2CCC(C3CCN(c4ccc(S(C)(=O)=O)cc4)CC3)CC2)nc1 | 57 | 45 | –
CS(=O)(=O)c1ccc(N2CCC(C3CCN(c4ncccn4)CC3)CC2)cc1 | 98 | 887 | –
Cc1cnc(N2CCC(C3CCN(c4cc(C#N)nc(C)n4)CC3)CC2)cn1 | 30 | 82 | IC50 [10]: 5400 nM; Activity [8]: 7%
CS(=O)(=O)c1ccc(N2CCC(C3CCN(c4ccc(C#N)cn4)CC3)CC2)cc1 | 62 | 41 | –
CC(C)(C)OC(=O)N1CCC(C2CCN(c3cccc(S(C)(=O)=O)c3)CC2)CC1 | 1900 | – | Activity [7]: < 10%
CC(C)(C)OC(=O)N1CCC(C2CCN(c3cccc(C(N)=O)c3)CC2)CC1 | – | – | Activity [9]: < 10%; Activity [7]: < 10%

Further lines, with some results ahead:

EC50 [1] [nM] | EC50 [2] [nM] | Structure (SMILES) | other results
2 | 2 | Cc1cnc(N2CCC([C@H]3C[C@H]3CCOc3nc(C)cc(C#N)n3)CC2)nc1 | solubility [3]: 24800 µg/mL (≈ 65.5 mM); minimal effective dose [4]: 0.01 mg/kg; Activity [5]: Toxic
2 | 4 | Clc1cnc(N2CCC([C@H]3C[C@H]3CCOc3ccc(-n4ccnn4)cn3)CC2)nc1 | IC50 [6]: 44000 nM; solubility [3]: 11400 µg/mL (≈ 26.8 mM); minimal effective dose [4]: 1 mg/kg
2 | 2 | Cc1nc(C#N)cc(N2CCC(C3CCN(C(=O)OC(C)(C)C)CC3)CC2)n1 | –
19 | 206 | CS(=O)(=O)c1ccc(N2CCC(C3CCN(c4ccc(F)cn4)CC3)CC2)cc1 | –
2 | 11 | Cc1cc(N2CCC(C3CCN(c4ncc(Cl)cn4)CC3)CC2)nc(C#N)n1 | Activity [8]: 37%
18 | 36 | O=C(NC1CC1)c1ccc(OCC2CC2CC2CCN(c3ncc(Cl)cn3)CC2)cc1F (racemic; 56) | IC50 [10]: 1200 nM
1 | 2 | Cc1cc(N2CCC(C3CCN(C(=O)OC(C)(C)C)CC3)CC2)nc(C#N)n1 | –
18 | 73 | Cc1ccc(N2CCC(C3CCN(c4ccc(S(C)(=O)=O)cc4)CC3)CC2)nc1 | –
13 | 8 | CS(=O)(=O)c1ccc(N2CCC(C3CCN(c4ccc(C(F)(F)F)cn4)CC3)CC2)cc1 | –
11 | 132 | C[S+]([O-])c1ccc(N2CCC(C3CCN(C(=O)OC(C)(C)C)CC3)CC2)cc1 (configuration not stated) | –
5 | 8 | CS(=O)(=O)c1ccc(N2CCC(C3CCN(c4ncc(Cl)cn4)CC3)CC2)cc1 | –
6 | 31 | CC(C)(C)OC(=O)N1CCC(C2CCN(c3cc(C#N)ncn3)CC2)CC1 | –
0.3 | 0.4 | O=C(NC1CC1)c1ccc(OCCC2CC2C2CCN(c3ncc(Cl)cn3)CC2)cc1F (racemic) | IC50 [10]: > 30000 nM
14 | 5 | O=C(NC1CC1)c1ccc(OCCC2CC2C2CCN(c3ncc(Cl)cn3)CC2)cc1F (single isomer, unassigned; (+)) | IC50 [10]: > 30000 nM
6 | 11 | CC(C)(C)OC(=O)N1CCC(C2CCN(c3ccnc(C#N)n3)CC2)CC1 | –
9 | 18 | O=C(NC1CC1)c1ccc(OCC2CC2CC2CCN(c3ncc(Cl)cn3)CC2)cc1F (racemic; 57) | IC50 [10]: > 30000 nM
4 | 6 | Clc1cnc(N2CCC([C@H]3C[C@H]3CCOc3ccc(-n4ccnn4)cc3)CC2)nc1 | solubility [3]: 5000 µg/mL (≈ 11.8 mM); minimal effective dose [4]: 10 mg/kg
0.2 | 0.8 | O=C(NC1CC1)c1ccc(OCCCC2CC2CCCC2CCN(c3ncc(Cl)cn3)CC2)cc1F (racemic) | –
4 | 4 | CS(=O)(=O)c1ccc(OCC[C@@H]2C[C@@H]2C2CCN(c3ncc(Cl)cn3)CC2)nc1 | Vd [14]: 2.1 L/kg; half-life [15]: 12.4 h; AUC [16]: 12.1 µM·kg·h/mg; IC50 [6]: 19000 nM; solubility [3]: 7100 µg/mL (≈ 16.2 mM); minimal effective dose [4]: 1 mg/kg; Activity [5]: Non-toxic; clearance [17]: 2.1 mL/min/kg
3 | 2 | O=C(NC1CC1)c1ccc(OCCC2CC2C2CCN(c3ncc(Cl)cn3)CC2)cc1F (single isomer, unassigned; (-)) | IC50 [10]: 2600 nM
8 | 10 | Cc1cnc(N2CCC(C3CCN(c4cc(C#N)nc(C)n4)CC3)CC2)nc1 | IC50 [10]: 1800 nM; Activity [8]: 46%
